Experimental data reported in paper PMC4446607, “Tilapia Piscidin 4 (TP4) Stimulates Cell Proliferation and Wound Closure in MRSA-Infected Wounds in Mice” (Marine Drugs, 2015).

How the values were obtained:
[1] = tested on: keratin 10 and keratin 17 gene expression in HaCaT cells; test: Real-time qPCR of keratin 10 and keratin 17 gene expression in HaCaT cells; assay type: cell-based, human; conditions: TP4 6.25 µg/mL, 48 h, GAPDH reference
Description: (§1) Total RNA was isolated from HaCaT and Hs-68 cells, and purified using a Qiagen RNeasy kit. Reverse transcription into cDNA was performed with an iScript cDNA Synthesis Kit (Cat. No. 1708991; BIO-RAD, Hercules, CA, USA) according to the manufacturer’s recommendations. Real-time polymerase chain reaction (PCR) was performed to analyze gene expression, using […] of cDNA, 2× iQSYBR® Green Supermix (Cat. No. 1708882; BIO-RAD, Hercules, CA, USA), and 500 nM of forward and reverse primers against selected genes or GAPDH (reference gene), according to the instructions of the manufacturer. Quantitative PCR was performed under the following conditions: 40 cycles of 1 min at 95 °C, 30 s at 55 °C, and 1 min at 72 °C. The threshold cycle number (Ct) was calculated with BIO-RAD software. Relative transcript quantities were calculated using the ΔCt method with GAPDH as the internal reference gene. ΔCt is the difference in the threshold cycles of messenger (m) RNA for selected genes relative to those of GAPDH mRNA. Real-time PCR was performed in triplicate for each experimental group.

[2] = tested on: EGF, TGF-β and VEGF gene expression in wound tissue; test: Real-time RT-PCR of EGF, TGF-β and VEGF gene expression in wound tissue of MRSA-infected mice; assay type: in vivo
Description: as §1
Tracings were taken immediately after injury. For uncontaminated wounds, wound size was determined every second day. […] Wound areas were determined using the Macintosh Adobe Photoshop program, Histogram Analysis. The percentage of wound contraction was calculated as follows: % Wound contraction = (A0 − At)/A0× 100, where A0 is the original wound area, and At is the area of wound at the time of biopsy, accordingly. Cell proliferation gene expression was performed by real-time PCR, using the methods described in Section 4.4 above.

[3] = tested on: collagen I, collagen III and KGF gene expression in Hs-68 cells; test: Real-time qPCR of collagen I, collagen III and KGF gene expression in Hs-68 cells; assay type: cell-based, human; conditions: TP4 6.25 μg/mL, 48 h, GAPDH reference
Description: as §1

MRSA-infected wounds = test: Mouse model of wound healing, full-thickness wounds contaminated with MRSA (wound closure); assay type: in vivo, Balb/c mice
Description: Female Balb/c mice (6–8 weeks old) were used for wound healing experiments. All mice were housed individually to prevent fighting and further damage to the wounds, and they were provided with food and water ad libitum. Mice were maintained on a 12 h light: dark cycle at room temperature, and acclimatized to the environment for at least a week before use in experiments. All researchers wore caps, sterile gloves, gowns, and shoe covers when handling mice. Hair was removed from the back of the mice by shaving, and a full thickness wound (1 cm in diameter) was then created in the exposed region. Each wound was inoculated with 50 µL of broth mix containing 10^6 CFU (colony forming units) of MRSA. At 5 min after inoculation, 50 µL TP4 (2 mg/mL) in a total volume of 0.1 mL were applied to the wound. […] Animals were subsequently euthanized by CO2 inhalation and the wounds assessed. […] Each wound was measured and then removed from the animal, with unwounded skin taken from the contralateral dorsum as a control. Each biopsy was divided into six sections, with three sections being used for tensiometry and histology, and three sections for quantitative determination of microbial load. […]
Tracings were taken immediately after injury. For uncontaminated wounds, wound size was determined every second day. […] Wound areas were determined using the Macintosh Adobe Photoshop program, Histogram Analysis. […]

MRSA = test: Mouse model of MRSA sepsis (survival, lethality, bacterial counts in organs); assay type: in vivo, Staphylococcus aureus; conditions: for Survival rate at eight days after MRSA infection: i.p. treatment 10 min later: TP4 0.005 mg/g, vancomycin 0.01 mg/g, methicillin 0.01 mg/g; for Survival rate at eight days after MRSA infection / % lethality: n = 10; for Mean ± SD Count (CFU/mL) Blood / Mean ± SD Count (CFU/mL) Liver / Mean ± SD Count (CFU/mL) Mesenteric Lymph Nodes / Mean ± SD Count (CFU/mL) Peritoneum / Mean ± SD Count (CFU/mL) Spleen / % lethality: MRSA-infected mice, TP4 0.005 mg/g, methicillin or vancomycin 0.01 mg/g; for Mean ± SD Count (CFU/mL) Blood / Mean ± SD Count (CFU/mL) Liver / Mean ± SD Count (CFU/mL) Mesenteric Lymph Nodes / Mean ± SD Count (CFU/mL) Peritoneum / Mean ± SD Count (CFU/mL) Spleen: 48 h after i.p. treatment; for % lethality: monitored for 2 day following i.p. injection
Description: (§2) An MRSA strain commonly associated with human wound infections was selected to generate a polymicrobial solution [32]. The MRSA strain is a clinical isolate from stool obtained from Taipei City Hospital (Heping Fuyou branch). The strain was identified by routine laboratory methods and stored in 20% (vol/vol) glycerol at −80 °C. Tryptic Soy Broth (TSB) was used as the culture medium. HaCaT human keratinocyte cell line and Hs-68 human foreskin fibroblast cell line were grown in DMEM containing 10% (v/v) FBS, 0.37% (w/v) NaHCO3, penicillin (100 unit/mL), streptomycin (100 μg/mL), 0.1 mM NEAA, and 1 mM sodium pyruvate at 37 °C in a humidified incubator under 5% CO2 and 95% air. The cells were harvested at ca. 90% confluence (ca. 10^6 cells/10-cm dish). Balb/c female mice were used for the experiments. All mice were housed in cages under specific pathogen-free conditions, and given water and standard laboratory chow ad libitum during the experiments. All animal handing procedures were in accordance with National Taiwan Ocean University (NTOU) guidelines. All procedures were approved by the Animal Care and Use Committee of NTOU.
Female Balb/c mice (6–8 weeks old) were injected intraperitoneally with 10^6 CFU MRSA per mouse. Ten minutes after MRSA injection, mice were injected intraperitoneally with vancomycin (0.01 mg/g mouse body weight), methicillin (0.01 mg/g mouse body weight), or TP4 (0.005 mg/g mouse body weight). In a second set of experiments, mice were given intraperitoneal injections of TP4 (0.005 mg/g mouse body weight) at 10, 60, 120, or 180 min after MRSA injection. Survival rate and status were recorded every 24 h for up to 192 h. To examine bacterial dissemination, mice were sacrificed at 48 h after injection with antibiotics or TP4, and the bacterial numbers in blood, peritoneum, spleen, liver, and mesenteric lymph nodes were recorded. Colony counts from the diluted bacterial solutions were expressed relative to those at the start of treatment. These experiments consisted of four groups, and each group contained 10 mice.

[4] = tested on: HaCaT human keratinocyte cell line; assay type: cell-based; conditions: HaCaT cells
Description: as §2
(§3) Cells were cultured at a density of 5 × 10^4 cells per well in flat-bottomed 96-well plates, and supplemented with various combinations of TP4. After 24 h, cell viability were measured with neutral red (Cat. No. N4638; Sigma, St. Louis, MO, USA) uptake assay, Cytotoxicity Detection Kit (LDH) (Cat. No. 11644793001; Roche Applied Science, Indianapolis, IN, USA), and CellTiter 96 Aqueous One Solution (Cat. No. G1111; Promega, Madison, WI, USA), following the vendors’ instructions.

[5] = tested on: Hs-68 human foreskin fibroblast cell line; assay type: cell-based
Description: as §2, §3

[6] = tested on: TNF, IL-6 and IL-1 in serum; test: Serum cytokines (TNF, IL-6, IL-1) by ELISA in mice with MRSA-infected wounds; assay type: in vivo; conditions: MRSA-infected wound
Description: Female Balb/c mice (6–8 weeks old) were used for wound healing experiments. All mice were housed individually to prevent fighting and further damage to the wounds, and they were provided with food and water ad libitum. Mice were maintained on a 12 h light: dark cycle at room temperature, and acclimatized to the environment for at least a week before use in experiments. All researchers wore caps, sterile gloves, gowns, and shoe covers when handling mice. Hair was removed from the back of the mice by shaving, and a full thickness wound (1 cm in diameter) was then created in the exposed region. Each wound was inoculated with 50 µL of broth mix containing 10^6 CFU (colony forming units) of MRSA. At 5 min after inoculation, 50 µL TP4 (2 mg/mL) in a total volume of 0.1 mL were applied to the wound. Thirty minutes after treatment, wounds were covered with Tegaderm (3 M, St. Paul, MN, USA) to maintain uniformity, and to prevent the mice from removing the treatments. Based on initial experiments, we examined the wounds at 3, 7, 14, and 21 days post-injury, so as not to disturb the infection. Such examinations captured the transitions from inflammatory to regenerative, and regenerative to resolving phases of wound healing. Animals were subsequently euthanized by CO2 inhalation and the wounds assessed. Four individuals in each group were examined at each time point for each experiment. Each wound was measured and then removed from the animal, with unwounded skin taken from the contralateral dorsum as a control. Each biopsy was divided into six sections, with three sections being used for tensiometry and histology, and three sections for quantitative determination of microbial load. Wound healing studies were repeated in triplicate.
Skin tissues were removed and fixed as previously described. In brief, the cryosections were fixed with 4% formaldehyde, and the tissue samples were stained with VEGF. IHC was analyzed by three independent investigators. Images were taken using a BX-51 microscope (Olympus, Japan). ELISA was performed as previously described.

[7] = Balb/c mice, MRSA 1 × 10^6 CFU/mouse i.p., TP4 0.005 mg/g i.p.
[8] = Balb/c mice, MRSA 1 × 10^6 CFU/mouse i.p.

Compound | Survival rate at eight days after MRSA infection (MRSA; [8]) [%] | Mean ± SD Count (CFU/mL) Blood (MRSA) | Mean ± SD Count (CFU/mL) Liver (MRSA) | Mean ± SD Count (CFU/mL) Mesenteric Lymph Nodes (MRSA) | Mean ± SD Count (CFU/mL) Peritoneum (MRSA) | Mean ± SD Count (CFU/mL) Spleen (MRSA) | % lethality (MRSA) | also measured
H-FIHHIIGGLFSAGKAIHRLIRRRRR-OH [TP4, Tilapia piscidin 4] | 100 | 0 ^A CFU/mL | 2.4 × 10^6 ± 1 × 10^6 A CFU/mL | 6 × 10^5 ± 1 × 10^5 A CFU/mL | 1 × 10^6 ± 1 × 10^6 A CFU/mL | 3 × 10^6 ± 1.2 × 10^6 A CFU/mL | 0 ^A % | Keratin 10 gene expression versus untreated controls [1]: significantly increased; Keratin 17 gene expression versus untreated controls [1]: did not affect; EGF gene expression compared to control and vancomycin-treated mice ([2]; 3 days post-infection): enhanced gene expression; VEGF gene expression compared to control and vancomycin-treated mice ([2]; 14 days post-infection): enhanced gene expression; TGF gene expression compared to control and vancomycin-treated mice ([2]; seven days post-infection): enhanced gene expression; Collagen I gene expression versus untreated controls [3]: enhanced; Collagen III gene expression versus untreated controls [3]: enhanced; KGF gene expression versus untreated controls [3]: enhanced; Wound size by 14 days (MRSA-infected wounds; MRSA-contaminated wounds, P < 0.05): smaller than that of the vancomycin-treated group; Wound closure compared with the control (MRSA-infected wounds; contaminated wounds (increase not observed in uncontaminated wounds)): accelerated; Survival rate, TP4 injected 10 min after MRSA (MRSA; [7]): 100%; Survival rate, TP4 injected 60 min after MRSA (MRSA; [7]): 80%; Survival rate, TP4 injected 120 min after MRSA (MRSA; [7]): 60%; Survival rate, TP4 injected 180 min after MRSA (MRSA; [7]): 50%; TP4 concentration at which stimulation of proliferation / gene expression was detectable [4]: 6.25 µg/mL; TP4 concentration at which stimulation of proliferation / gene expression was detectable ([5]; Hs-68 cells): 6.25 µg/mL; Doses at which Hs-68 cell proliferation was significantly increased ([5]; change in cell viability compared to the untreated group, neutral red, LDH, MTT): 2.5~10 μg/mL; IL-1 compared with control wounds [6]: statistically significant enhancement; Induction of IL-6 compared to MRSA-infected positive controls ([6]; three days after treatment): decreased induction; Induction of TNF compared to MRSA-infected positive controls ([6]; three days after treatment): decreased induction
CN[C@H](CC(C)C)C(=O)N[C@H]1C(=O)N[C@@H](CC(N)=O)C(=O)N[C@H]2C(=O)N[C@H]3C(=O)N[C@H](C(=O)N[C@H](C(=O)O)c4cc(O)cc(O)c4-c4cc3ccc4O)[C@H](O)c3ccc(c(Cl)c3)Oc3cc2cc(c3O[C@@H]2O[C@H](CO)[C@@H](O)[C@H](O)[C@H]2O[C@H]2C[C@](C)(N)[C@H](O)[C@H](C)O2)Oc2ccc(cc2Cl)[C@H]1O [vancomycin] | 80 | 8 × 10^4 ± 1.1 × 10^4 B CFU/mL | 1.3 × 10^7 ± 1.8 × 10^5 B CFU/mL | 1 × 10^7 ± 4 × 10^6 B CFU/mL | 1.5 × 10^6 ± 1 × 10^5 A CFU/mL | 1.4 × 10^7 ± 1.1 × 10^6 B CFU/mL | 10% | –
COc1cccc(OC)c1C(=O)N[C@@H]1C(=O)N2[C@@H]1SC(C)(C)[C@@H]2C(=O)O [methicillin] | 0 | 4.1 × 10^7 ± 1.3 × 10^7 B CFU/mL | 2.7 × 10^8 ± 3.3 × 10^6 B CFU/mL | 4.1 × 10^7 ± 3 × 10^7 C CFU/mL | 2.3 × 10^9 ± 2 × 10^8 B CFU/mL | 1.5 × 10^8 ± 2.1 × 10^7 B CFU/mL | 20 ^B % | –
